Data published in PubChem BioAssay (NCI).
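All cell lines were grown in 96-well plates and treated with compound for 48 hours. TGI: total growth inhibition.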

How the values were obtained:
Test in all cases: NCI-60 cell line screen, 48 h
[1] = system: MALME-3M melanoma
[2] = system: HOP-62 NSCLC
[3] = system: KM12 colon
[4] = system: MCF7 breast
[5] = system: UO-31 renal
[6] = system: OVCAR-5 ovarian
[7] = system: SK-MEL-5 melanoma
[8] = system: OVCAR-8 ovarian
[9] = system: M14 melanoma
[10] = system: MDA-MB-231 breast
[11] = system: NCI-H23 lung
[12] = system: SK-OV-3 ovarian
[13] = system: EKVX NSCLC
[14] = system: MDA-N
[15] = system: K-562 leukemia
[16] = system: HCT-116 colon
[17] = system: RXF 393 renal
[18] = system: DU-145 prostate
[19] = system: SK-MEL-28 melanoma
[20] = system: SF-539 CNS
[21] = system: IGROV1 ovarian
[22] = system: OVCAR-4 ovarian
[23] = system: SW-620 colon
[24] = system: SK-MEL-2 melanoma
[25] = system: HT29 colon
[26] = system: SNB-75 CNS
[27] = system: SF-295 CNS
[28] = system: SN12C renal
[29] = system: 786-0 renal
[30] = system: MOLT-4 leukemia
[31] = system: A549 NSCLC
[32] = system: HS 578T breast
[33] = system: T-47D breast
[34] = system: NCI-H460 lung
[35] = system: LOX IMVI melanoma
[36] = system: RPMI-8226 leukemia
[37] = system: MDA-MB-435
[38] = system: TK-10 renal
[39] = system: U251 CNS
[40] = system: HOP-92 NSCLC
[41] = system: HCT-15 colon
[42] = system: CAKI-1 renal
[43] = system: NCI-H522 lung
[44] = system: SNB-19 CNS
[45] = system: PC-3 prostate
[46] = system: CCRF-CEM leukemia
[47] = system: UACC-62 melanoma
[48] = system: ACHN renal
[49] = system: COLO 205 colon
[50] = system: HCC-2998 colon
[51] = system: BT-549 breast
[52] = system: NCI/ADR-RES ovarian
[53] = system: UACC-257 melanoma
[54] = system: SF-268 CNS
[55] = system: OVCAR-3 ovarian
[56] = system: HL-60(TB) leukemia
[57] = system: NCI-H226 lung
[58] = system: A498 renal

With O=C(Nc1ccc(N2C(=O)CSC2c2ccccc2O)cc1)c1ccc(N2C(=O)CSC2c2ccccc2O)cc1 (stereo not drawn) the TGI [1] was over 100 µM, the TGI [2] was over 100 µM and the TGI [3] was over 100 µM. It also gave a TGI [4] of over 100 µM, a TGI [5] of over 100 µM and a TGI [6] of over 100 µM. The TGI [7] was over 100 µM, the TGI [8] was over 100 µM and the TGI [9] was 61.3 µM. It also gave a TGI [10] of over 100 µM, a TGI [11] of over 100 µM and a TGI [12] of 62.3 µM. For the same compound, the TGI [13] was over 100 µM, the TGI [14] was over 100 µM and the TGI [15] was over 100 µM. The TGI [16] was over 100 µM, the TGI [17] was over 100 µM and the TGI [18] was over 100 µM. The TGI [19] was over 100 µM, the TGI [20] was over 100 µM and the TGI [21] was over 100 µM. For the same compound, the TGI [22] was over 100 µM, the TGI [23] was over 100 µM and the TGI [24] was over 100 µM. The TGI [25] was over 100 µM, the TGI [26] was 82.4 µM and the TGI [27] was over 100 µM. The TGI [28] was over 100 µM, the TGI [29] was over 100 µM and the TGI [30] was over 100 µM. It also gave a TGI [31] of over 100 µM, a TGI [32] of over 100 µM and a TGI [33] of over 100 µM. For the same compound, the TGI [34] was over 100 µM, the TGI [35] was over 100 µM and the TGI [36] was over 100 µM. For the same compound, the TGI [37] was over 100 µM, the TGI [38] was over 100 µM and the TGI [39] was over 100 µM. For the same compound, the TGI [40] was 86.4 µM, the TGI [41] was over 100 µM and the TGI [42] was over 100 µM. For the same compound, the TGI [43] was over 100 µM, the TGI [44] was over 100 µM and the TGI [45] was over 100 µM. For the same compound, the TGI [46] was over 100 µM, the TGI [47] was 98.1 µM and the TGI [48] was over 100 µM. The TGI [49] was over 100 µM, the TGI [50] was over 100 µM and the TGI [51] was over 100 µM. The TGI [52] was over 100 µM, the TGI [53] was over 100 µM and the TGI [54] was over 100 µM. It also gave a TGI [55] of over 100 µM.

Compound N#Cc1c(-c2ccc(Cl)cc2)c2c(nn3c4ccc5ccccc5c4nnc23)[nH]c1=O has a TGI [1] of 3.83 µM, a TGI [2] of 7.97 µM and a TGI [56] of over 100 µM. It also gave a TGI [3] of 13.3 µM, a TGI [4] of 14.8 µM and a TGI [5] of 12.6 µM. For the same compound, the TGI [6] was 23.4 µM, the TGI [7] was 6.27 µM and the TGI [8] was 6.98 µM. It also gave a TGI [9] of 6.14 µM, a TGI [10] of 20.6 µM and a TGI [11] of 4.56 µM. The TGI [12] was 7.99 µM, the TGI [13] was 27.1 µM and the TGI [14] was 5.78 µM. The TGI [15] was over 69.6 µM, the TGI [57] was over 52.5 µM and the TGI [16] was 7.02 µM. For the same compound, the TGI [17] was 3.72 µM, the TGI [18] was 4.61 µM and the TGI [19] was 5.28 µM. It also gave a TGI [20] of 3.96 µM, a TGI [21] of 4.06 µM and a TGI [22] of 21.6 µM. For the same compound, the TGI [23] was 11.4 µM, the TGI [24] was 5.77 µM and the TGI [25] was over 33.5 µM. It also gave a TGI [27] of 5.47 µM, a TGI [28] of 12.2 µM and a TGI [29] of 6.16 µM. For the same compound, the TGI [30] was over 46.4 µM, the TGI [31] was 20.8 µM and the TGI [32] was 6.54 µM. For the same compound, the TGI [33] was 2.66 µM, the TGI [34] was 16.2 µM and the TGI [35] was 4.18 µM. The TGI [36] was over 28.9 µM, the TGI [37] was 8.69 µM and the TGI [38] was over 100 µM. The TGI [39] was 5.38 µM, the TGI [58] was 3.69 µM and the TGI [40] was 6.72 µM. For the same compound, the TGI [41] was 6.35 µM, the TGI [42] was 8.5 µM and the TGI [43] was 3.56 µM. It also gave a TGI [44] of 24.2 µM, a TGI [45] of 7 µM and a TGI [46] of over 100 µM. The TGI [47] was 3.24 µM, the TGI [48] was 8.76 µM and the TGI [49] was 10.6 µM. The TGI [50] was 8.87 µM, the TGI [51] was 2.92 µM and the TGI [52] was 26 µM. The TGI [53] was 18.8 µM, the TGI [54] was 8.26 µM and the TGI [55] was 3.62 µM.

Compound Cn1nc2ccc([N+](=O)[O-])c(Cn3nnc4ccccc43)c2n1 has a TGI [1] of over 100 µM, a TGI [2] of over 100 µM and a TGI [56] of over 100 µM. For the same compound, the TGI [3] was over 100 µM, the TGI [4] was over 100 µM and the TGI [5] was over 100 µM. It also gave a TGI [6] of over 100 µM, a TGI [7] of over 100 µM and a TGI [8] of over 100 µM. For the same compound, the TGI [9] was over 100 µM, the TGI [10] was over 100 µM and the TGI [11] was over 100 µM. For the same compound, the TGI [12] was over 100 µM, the TGI [13] was over 100 µM and the TGI [14] was over 100 µM. It also gave a TGI [15] of over 100 µM, a TGI [57] of over 100 µM and a TGI [16] of over 100 µM. It also gave a TGI [17] of over 100 µM, a TGI [18] of over 100 µM and a TGI [19] of over 100 µM. It also gave a TGI [20] of over 100 µM, a TGI [21] of over 100 µM and a TGI [22] of over 100 µM. The TGI [23] was over 100 µM, the TGI [24] was over 100 µM and the TGI [25] was over 100 µM. It also gave a TGI [26] of over 100 µM, a TGI [27] of over 100 µM and a TGI [28] of over 100 µM. It also gave a TGI [29] of over 100 µM, a TGI [30] of over 100 µM and a TGI [31] of over 100 µM. For the same compound, the TGI [32] was over 100 µM, the TGI [33] was over 100 µM and the TGI [34] was over 100 µM. It also gave a TGI [35] of over 100 µM, a TGI [36] of over 100 µM and a TGI [37] of over 100 µM. It also gave a TGI [38] of over 100 µM, a TGI [39] of over 100 µM and a TGI [58] of over 100 µM. The TGI [40] was over 100 µM, the TGI [41] was over 100 µM and the TGI [42] was over 100 µM. It also gave a TGI [44] of over 100 µM, a TGI [46] of over 100 µM and a TGI [47] of over 100 µM. It also gave a TGI [48] of over 100 µM, a TGI [49] of over 100 µM and a TGI [50] of over 100 µM. It also gave a TGI [51] of over 100 µM, a TGI [52] of over 100 µM and a TGI [53] of over 100 µM. For the same compound, the TGI [54] was over 100 µM and the TGI [55] was over 100 µM.
